This is an account of results in ChEMBL document CHEMBL1149672, “Synthesis of cryptolepine analogues as potential bioreducible anticancer agents” (Bioorg Med Chem, 2007).

Where a name gives a salt, the structure may show the parent alone.

By IC50 is commonly meant the concentration at which inhibition is half-maximal.

One assay has as its system BE. As to the kind of experiment: Cytotoxicity against low NQO1 protein expressing human BE cells by MTT assay. Type of assay: functional, cell-based.
For `C[n+]1c2ccccc2cc2[n-]c3c([N+](=O)[O-])cc(Br)cc3c21`, half-maximal inhibition (IC50) was put at 780 nM.
In the case of `C[n+]1c2ccccc2cc2[n-]c3ccccc3c21` [CRYPTOLEPINE HYDROCHLORIDE], it took 1280 nM to reach half-maximal inhibition (IC50).
The compound `C[n+]1c2ccccc2cc2[n-]c3cc([N+](=O)[O-])c(Br)cc3c21` gave an IC50 of 580 nM.
In the case of `C[n+]1c2ccccc2cc2[n-]c3c([N+](=O)[O-])c(Cl)ccc3c21`, inhibition was half-maximal at 1480 nM (IC50).
Regarding `C[n+]1c2ccc(Cl)cc2cc2[nH]c3ccc([N+](=O)[O-])cc3c21`, half-maximal inhibition (IC50) required 950 nM.
With `Cn1c(/C=C/CO)c(CO)c2c1C(=O)C=C(N1CC1)C2=O` [APAZIQUONE], the IC50 is 600 nM.

The target in another assay is NAD(P)H dehydrogenase [quinone] 1 (Homo sapiens) (UniProt P15559). As to the kind of experiment: Activity of recombinant human NQO1 assessed as specific activity.
Sequence of NAD(P)H dehydrogenase [quinone] 1 (Homo sapiens) (P15559 whole entry): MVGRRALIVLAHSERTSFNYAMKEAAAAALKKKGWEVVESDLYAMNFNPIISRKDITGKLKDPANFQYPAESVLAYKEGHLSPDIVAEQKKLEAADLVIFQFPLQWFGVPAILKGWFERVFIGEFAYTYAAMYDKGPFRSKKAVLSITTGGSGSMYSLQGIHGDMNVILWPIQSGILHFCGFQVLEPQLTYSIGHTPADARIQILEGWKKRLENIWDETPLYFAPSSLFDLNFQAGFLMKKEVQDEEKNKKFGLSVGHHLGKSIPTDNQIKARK
Take `C[n+]1c2ccc(F)cc2cc2[n-]c3c([N+](=O)[O-])cc([N+](=O)[O-])cc3c21`: the Activity came out at 2.96 µmol/min/mg.
`C[n+]1c2ccccc2cc2[n-]c3c([N+](=O)[O-])cc(Br)cc3c21`: the Activity is 8.66 µmol/min/mg.
As to `C[n+]1c2ccc(F)cc2cc2[n-]c3c([N+](=O)[O-])cccc3c21`, the Activity worked out at 2.72 µmol/min/mg.
On to `C[n+]1c2ccccc2cc2[n-]c3ccccc3c21` [CRYPTOLEPINE HYDROCHLORIDE], for which the Activity was 4.53 µmol/min/mg.
Still for that read-out and setting: in the case of `C[n+]1c2ccccc2cc2[n-]c3cc([N+](=O)[O-])c(Br)cc3c21` it was 13.9 µmol/min/mg.
On the same count and under the same terms, under `C[n+]1c2ccccc2cc2[n-]c3c([N+](=O)[O-])c(Cl)ccc3c21` stands 26.7 µmol/min/mg; under `NC(=O)c1cc(N2CC2)c([N+](=O)[O-])cc1[N+](=O)[O-]` [TRETAZICAR], 3.56 µmol/min/mg.
`C[n+]1c2ccc(Cl)cc2cc2[nH]c3ccc([N+](=O)[O-])cc3c21`: the Activity was 18.9 µmol/min/mg.
As to `Cn1c(/C=C/CO)c(CO)c2c1C(=O)C=C(N1CC1)C2=O` [APAZIQUONE], the Activity was 79.8 µmol/min/mg.

The subject of another assay is RT-112. Description: Selectivity ratio of IC50 for RT112 cells in presence of cofactor NRH to IC50 for RT112 cells. Type of assay: functional, Homo sapiens.
Consider `NC(=O)c1cc(N2CC2)c([N+](=O)[O-])cc1[N+](=O)[O-]` [TRETAZICAR], for which the “Ratio IC50” value is listed as 586.

In a further assay the test system is BE. Description: Selectivity ratio of IC50 for human H460 cells IC50 for human BE cells. Type of assay: functional.
Consider `Cn1c(/C=C/CO)c(CO)c2c1C(=O)C=C(N1CC1)C2=O` [APAZIQUONE], for which the “Ratio IC50” value came to 100.

Another assay has as its system NCI-H460. As to the kind of experiment: Cytotoxicity against high NQO1 protein expressing human H460 cells by MTT assay. Type of assay: functional, cell-based. (In general: Tetrazolium dyes change colour on reduction, which living cells bring about.)
For `C[n+]1c2ccccc2cc2[n-]c3c([N+](=O)[O-])cc(Br)cc3c21`, the IC50 amounted to 590 nM.
Compound `C[n+]1c2ccccc2cc2[n-]c3ccccc3c21` [CRYPTOLEPINE HYDROCHLORIDE] displayed a 50% inhibitory concentration (IC50) of 1450 nM.
On the same count and under the same terms, under `C[n+]1c2ccccc2cc2[n-]c3cc([N+](=O)[O-])c(Br)cc3c21` stands 380 nM; under `C[n+]1c2ccccc2cc2[n-]c3c([N+](=O)[O-])c(Cl)ccc3c21`, 1880 nM; under `C[n+]1c2ccc(Cl)cc2cc2[nH]c3ccc([N+](=O)[O-])cc3c21`, 460 nM.
With `Cn1c(/C=C/CO)c(CO)c2c1C(=O)C=C(N1CC1)C2=O` [APAZIQUONE], the IC50 came out at 5.9 nM.

In the next assay the test system is RT-112. As to the kind of experiment: Cytotoxicity against NQO2 expressing human RT112 cells in presence of NRH cofactor by MTT assay. It counts as functional, cell-based.
For the compound `C[n+]1c2ccccc2cc2[n-]c3cc(Cl)c([N+](=O)[O-])cc3c21`, the IC50 stood at 1080 nM.
Consider `C[n+]1c2ccc(F)cc2cc2[n-]c3ccc([N+](=O)[O-])cc3c21`, for which the IC50 stood at 1670 nM.
For `C[n+]1c2ccc(Cl)cc2cc2[n-]c3c([N+](=O)[O-])cc([N+](=O)[O-])cc3c21`, the IC50 stood at 230 nM.
For the compound `C[n+]1c2ccc(F)cc2cc2[n-]c3c([N+](=O)[O-])cc([N+](=O)[O-])cc3c21`, the IC50 was determined as 190 nM.
Consider `C[n+]1c2ccccc2cc2[n-]c3c([N+](=O)[O-])cc(Br)cc3c21`, for which the IC50 was 150 nM.
Turning to `C[n+]1c2ccc(F)cc2cc2[n-]c3c([N+](=O)[O-])cccc3c21`, the IC50 was 1100 nM.
In the case of `C[n+]1c2ccccc2cc2[n-]c3ccccc3c21` [CRYPTOLEPINE HYDROCHLORIDE], the IC50 came out at 800 nM.
With `C[n+]1c2ccccc2cc2[n-]c3cc([N+](=O)[O-])c(Br)cc3c21`, the IC50 amounted to 320 nM.
On the same count and under the same terms, under `C[n+]1c2ccccc2cc2[n-]c3c([N+](=O)[O-])c(Cl)ccc3c21` stands 640 nM; under `NC(=O)c1cc(N2CC2)c([N+](=O)[O-])cc1[N+](=O)[O-]` [TRETAZICAR], 150 nM; under `C[n+]1c2ccc(Cl)cc2cc2[nH]c3ccc([N+](=O)[O-])cc3c21`, 280 nM.
For the compound `C[n+]1c2ccc(Cl)cc2cc2[n-]c3c([N+](=O)[O-])cccc3c21`, the IC50 was 820 nM.

The next assay has as its system RT-112. Description: Cytotoxicity against NQO2 expressing human RT112 cells by MTT assay. Type of assay: functional, cell-based.
As to `C[n+]1c2ccccc2cc2[n-]c3cc(Cl)c([N+](=O)[O-])cc3c21`, half-maximal inhibition (IC50) required 1030 nM.
For the compound `C[n+]1c2ccc(F)cc2cc2[n-]c3ccc([N+](=O)[O-])cc3c21`, half-maximal inhibition (IC50) required 2130 nM.
Regarding `C[n+]1c2ccc(Cl)cc2cc2[n-]c3c([N+](=O)[O-])cc([N+](=O)[O-])cc3c21`, the IC50 was 290 nM.
On the same count and under the same terms, in the case of `C[n+]1c2ccc(F)cc2cc2[n-]c3c([N+](=O)[O-])cc([N+](=O)[O-])cc3c21` it was 450 nM.
Compound `C[n+]1c2ccccc2cc2[n-]c3c([N+](=O)[O-])cc(Br)cc3c21` showed an IC50 of 240 nM.
Take `C[n+]1c2ccc(F)cc2cc2[n-]c3c([N+](=O)[O-])cccc3c21`: half-maximal inhibition (IC50) was put at 1350 nM.
Take `C[n+]1c2ccccc2cc2[n-]c3ccccc3c21` [CRYPTOLEPINE HYDROCHLORIDE]: the IC50 turned out to be 820 nM.
In turn, `C[n+]1c2ccccc2cc2[n-]c3cc([N+](=O)[O-])c(Br)cc3c21` had an IC50 of 360 nM.
`C[n+]1c2ccccc2cc2[n-]c3c([N+](=O)[O-])c(Cl)ccc3c21` returned an IC50 of 760 nM.
On to `NC(=O)c1cc(N2CC2)c([N+](=O)[O-])cc1[N+](=O)[O-]` [TRETAZICAR], for which 88800 nM corresponded to half-maximal inhibition (IC50).
For the compound `C[n+]1c2ccc(Cl)cc2cc2[nH]c3ccc([N+](=O)[O-])cc3c21`, the IC50 turned out to be 410 nM.
In turn, `C[n+]1c2ccc(Cl)cc2cc2[n-]c3c([N+](=O)[O-])cccc3c21` gave an IC50 of 880 nM.
